Assay results: patent publication US20230158036A1, “MEDICAMENT FOR THE TREATMENT OF PAIN” (Shionogi & Co., Ltd., priority 2020, published 2023)

Assays:
[1] = system: knee osteoarthritis patients; settings: 300 mg twice daily oral, after 4 weeks; NPRS before administration 6.8; cited from earlier work
[2] = system: patients of interstitial cystitis/bladder pain syndrome; settings: twice daily oral, gradually increased from 50 mg to 300 mg, after 4 weeks; NPRS before administration 6.2; cited from earlier work
[3] = system: rat diabetic neuropathic pain model; assay: Drug efficacy in diabetic neuropathic pain model (STZ, Randall-Selitto; Test Example 6); assay type: in vivo; settings: 10 mg/kg oral, 3 hours after administration
Procedure: (Test Example 6) Assessment of Drug Efficacy in Diabetic Neuropathic Pain Model
Preparation of Rat Diabetic Neuropathic Pain Model
To overnight fasted rats, […] of streptozotocin (STZ) was intravenously administered to prepare a diabetes model. As a control, rats to which saline was administered were also prepared.
(§1) Two weeks after the administration of STZ, the analgesic effect of the compound represented by Formula (I) was evaluated by the Randall-Selitto method. […] On the day of the test, the pain threshold before the administration of the compound represented by Formula (I) was measured, and then after the administration of the test substance, the pain threshold was measured. The compound represented by Formula (I) was homogenized with mortar and pestle and suspended in 0.5% Methyl Cellulose to prepare a suspension, and it was orally administered at 10 mg/kg to the animals using a syringe attached with a sonde. Pain thresholds were measured for the hind limbs at 3 hours after the administration of the test substance, and these were used as post-administration pain thresholds. A percent reversal value for each rat was calculated using the following formula. The analgesic effects of the compound were compared.
% Reversal value=(post-administration pain threshold−pre-administration pain threshold)/(pain threshold of saline-administered rat−pre-administration pain threshold)×100

[4] = system: rat knee osteoarthritis model; assay: Drug efficacy in knee osteoarthritis pain model (MIA, hind limb load distribution; Test Example 7); assay type: in vivo; settings: 10 mg/kg oral, 3 hours after administration
Procedure: (Test Example 7) Assessment of Drug Efficacy in Knee Osteoarthritis Pain Model
Preparation of Rat Knee Osteoarthritis Model
Under isoflurane anesthesia, a knee joint on one side was shaved, and a monoiode sodium acetate (MIA) solution (saline solution, up to 5 mg/50 μL/rat) was intraarticularly administered.
Two weeks after the MIA administration, the analgesic effect of the compound represented by Formula (I) was evaluated. This test was based on a system for measuring a load distribution applied to hind limbs of a rat, and a ratio of load differences between left and right hind limbs was used as a pain threshold. On the day of the test, the pain threshold before the administration of the compound represented by Formula (I) was measured, and then after the administration of the test substance, the pain threshold was measured. […] Pain thresholds were measured for the hind limbs at 3 hours after the administration of the test substance, and these were used as post-administration pain thresholds. The load difference was measured up to three times, and the average value thereof was used as the pain threshold.
A percent reversal value for each rat was calculated using the following formula. […]

[5] = system: mouse bone cancer pain model; assay: Drug efficacy in mouse bone cancer pain model (NCTC2472 cells in femur, von Frey; Test Example 10); assay type: in vivo; settings: 10 mg/kg oral, two weeks after operation
Description: (Test Example 10) Assessment of Drug Efficacy in Mouse Bone Cancer Pain Model
Preparation of Mouse Bone Cancer Pain Model
The skin was incised under isoflurane anesthesia, the muscles were torn to expose the left femur, a hole was made in the bone marrow cavity using a 26 G needle, and tumor cells (NCTC2472 cells derived from C3H/HeN mice) were transplanted using a 30 G needle. The hole made in the femoral bone marrow cavity was closed with dental cement, and then the skin was sutured. Mice in sham-operated groups were prepared by administering HBSS instead of tumor cells.
Two weeks after the operation, the effect on tactile allodynia was assessed using von Frey filaments. Two weeks after the operation, for habituation, the mice were placed into a plastic cage on a wire mesh bottom. […] The pain threshold was evaluated for the operated hind limb and defined as a pre-administration pain threshold, and the compound represented by the formula (I) was administered to the animal at 10 mg/kg. […] Pain thresholds were measured for the operated hind limbs after the administration of the test substance, and these were used as post-administration pain thresholds. A percent reversal value for each rat was calculated using the following formula. […]

[6] = system: rat inflammatory pain model; assay: Drug efficacy in inflammatory pain model (FCA, Randall-Selitto; Test Example 8); assay type: in vivo; settings: 10 mg/kg oral, 1 hour after administration
Procedure: (Test Example 8) Assessment of Drug Efficacy in Inflammatory Pain Model
Preparation of Rat Inflammatory Pain Model
Under isoflurane anesthesia, FCA (12.5-100 μg) was subcutaneously injected into the hind limb of a rat to prepare an inflammatory pain model.
as §1, with “FCA,” for “STZ,”, “1 hour” for “3 hours”
% Reversal value=(post-administration pain threshold−pre-administration pain threshold)/(pain threshold of hind limb on FCA-non-administered side−pre-administration pain threshold)×100

[7] = system: acetic acid-induced urination disorder model; assay: Drug efficacy in acetic acid-induced urination disorder model (Test Example 11); assay type: in vivo; settings: rat, 3 mg/kg oral
Procedure: (Test Example 11) Assessment of Drug Efficacy in Acetic Acid-Induced Urination Disorder Model
Preparation of acetic acid-induced urination disorder model
A catheter was placed in a rat bladder under isoflurane anesthesia. After 2 days from the surgery for placing the catheter, 0.3% acetic acid was administered at 4 mL/hr over 30 minutes to induce cystitis. In this model, the amount of urine per urinating action and the voiding interval decreased.
On the day after acetic acid was administered, the amount of urine per urinating action and the voiding interval before drug administration were evaluated. The compound represented by Formula (I) was homogenized with mortar and pestle and suspended in 0.5% Methyl Cellulose to prepare a suspension, and it was orally administered at 0.1 mg/kg, 0.75 mg/kg, or 3 mg/kg to the rats using a syringe attached with a sonde. The amount of urine per urinating action and the voiding interval during a period from 30 minutes to 150 minutes after administration were measured. The value before administration for each individual was assumed to be 100%, and the change rate after administration was calculated.
Rate of change in amount of voided urine per urinating action=(amount of urine per urinating action after drug treatment of cystitis rat[…]amount of voided urine per urinating action before drug treatment of cystitis rat)×100
Rate of change in voiding interval=(voiding interval after drug treatment of cystitis rat[…]voiding interval before drug treatment of cystitis rat)×100

rat P2X3 receptor = target: T1, rat P2X3 receptor (Rattus norvegicus, UniProt P49654); assay: Evaluation of rat P2X3 receptor inhibitory activity in the presence of rat serum albumin (Test Example 4); assay type: cell-based
T1 construct: expressed in transfected cells; host or cells: C6BU-1 cells (stably expressing line)
T1 sequence (P49654 1-397): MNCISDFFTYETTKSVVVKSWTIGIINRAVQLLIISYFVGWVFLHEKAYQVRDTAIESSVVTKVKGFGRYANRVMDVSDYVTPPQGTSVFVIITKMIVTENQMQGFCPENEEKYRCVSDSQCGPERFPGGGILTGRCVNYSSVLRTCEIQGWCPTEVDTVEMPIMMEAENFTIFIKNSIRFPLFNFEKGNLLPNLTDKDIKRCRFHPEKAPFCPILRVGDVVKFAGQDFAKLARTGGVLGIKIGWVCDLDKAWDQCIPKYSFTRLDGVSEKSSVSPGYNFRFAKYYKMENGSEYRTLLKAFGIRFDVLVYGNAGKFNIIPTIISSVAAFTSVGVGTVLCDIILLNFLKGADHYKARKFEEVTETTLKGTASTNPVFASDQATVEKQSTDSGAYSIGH
Description: (Test Example 4) Evaluation of Rat P2X3 Receptor Inhibitory Activity in the Presence of Rat Serum Albumin (RSA)

[8] = system: partial sciatic nerve ligation model in rats; assay: Drug efficacy in Seltzer model (partial sciatic nerve ligation, von Frey tactile allodynia; Test Example 5); assay type: in vivo; settings: rat, 10 mg/kg oral, 3 hours after administration, two weeks after operation
Description: (Test Example 5) Assessment of Drug Efficacy in Seltzer Model
Partial Sciatic Nerve Ligation Model in Rats
Each rat was anesthetized with isoflurane and the hair of the left thigh was shaved. An incision was made in the skin just below the hip bone. The muscle was bluntly dissected to expose the sciatic nerve. ⅓ to ½ of the sciatic nerve was strongly ligated with a thread, and the muscle and the skin were sutured. This is referred to as a nerve ligated side. The right thigh underwent an identical procedure with the left hind limb except for the ligation of the sciatic nerve. This is referred to as a sham operated side.
Two weeks after the operation, the effect on tactile allodynia was assessed using von Frey filaments. Two weeks after the operation, for habituation, the rats were placed into a plastic cage on a wire mesh bottom. […] Pain thresholds were measured for the left and right hind limbs and these were used as pre-treatment pain thresholds. […] Pain thresholds were measured for the right and left hind limbs at 3 hours after the drug administration, and these were used as post-treatment pain thresholds. A percent reversal value for each rat was calculated using the following formula. […]

mouse bladder pain model = assay: Drug efficacy in cystitis pain model (cyclophosphamide, automatic von Frey; Test Example 9); assay type: in vivo; settings: 3 mg/kg oral, 1 hour after administration
Procedure: (Test Example 9) Assessment of Drug Efficacy in Cystitis Pain Model
Preparation of Mouse Bladder Pain Model
Cyclophosphamide was dissolved in physiological saline or the like, and the solution was intraperitoneally administered to mice. Cyclophosphamide was administered at 150 mg/kg once daily consecutively for four days. As a control, mice to which saline was administered were also prepared.
The analgesic effect of the compound represented by Formula (I) was evaluated the day after the final administration of cyclophosphamide. In this test, mechanical stimulation by an automatic von Frey device was applied to the periphery of the lower abdomen while holding the mouse, and with respect to the resulting escape behavior defined as pain-like behavior, the pain threshold was determined. On the day of the test, the pain threshold before the administration (pre-administration pain threshold) of the compound represented by Formula (I) was measured, and then after the administration of the test substance, the pain threshold was measured. […] Pain thresholds were measured at 1 hour after the administration of the test substance, and these were used as post-administration pain thresholds. A percent reversal value for each rat was calculated using the following formula. […]

[9] = 30 to 150 minutes after administration, value before administration = 100%

| SMILES | Numeric pain rating scale (NPRS) after administration [1] | Numeric pain rating scale (NPRS) after administration [2] | Percent reversal value (pain threshold, Randall-Selitto) [3] | Percent reversal value (load difference between left and right hind limbs) [4] | Percent reversal value (pain threshold, von Frey) [5] | Percent reversal value (pain threshold, Randall-Selitto) [6] | Rate of change in amount of voided urine per urinating action [7, 9] | Rate of change in voiding interval [7, 9] | Effect on voiding interval and amount of voided urine (FIGS. 1 and 2), in words ([7]; p<0.05 vs vehicle (Dunnett)) | IC50 (rat P2X3 receptor) | Percent reversal value (pain threshold, von Frey) [8] | Percent reversal value (lower abdomen pain threshold, automatic von Frey) (mouse bladder pain model) |
| --- | --- | --- | --- | --- | --- | --- | --- | --- | --- | --- | --- | --- |
| COc1cc(C(C)C)c(Oc2cnc(N)nc2N)cc1S(N)(=O)=O [Gefapixant] | 4.9 | 3.3 | – | – | – | – | – | – | – | – | – | – |
| C[C@@H](Cn1c(=O)[nH]/c(=N\c2ccc(Oc3ccccn3)cc2)n(Cc2ccc(Cl)cc2)c1=O)C(=O)O [compound represented by Formula (I), (2S)-3-(3-[(4-chlorophenyl)methyl]-2,6-dioxo-4-([4-(pyridin-2-yloxy)phenyl]amino)-3,6-dihydro-1,3,5-triazin-1(2H)-yl)-2-methyl-propanoic acid] | – | – | 55% | 51% | 55% | 58% | 208.4% | 219.0% | significant improving effect | 10 nM | 65% | 46% |
